Experimental data from patent US11591323B2, “Muscarinic agonists as non-steroidal and non-opioid analgesics and methods of use thereof” (Barry University, priority 2019, dated 2023).

Tested on: rat aorta smooth muscle cells (mainly M2, lesser M3)
Assay: IPX level in primary culture of rat aorta smooth muscle cells
Assay type: cell-based
Settings: in words
Experimental: Effects of compounds 6A and 7A on both cAMP and IPX levels were also measured in primary cultures of rat aorta smooth muscle cells that express mainly M2 and to a lesser extent M3 receptors (FIG. 6). […] Receptor expression levels are far lower in tested native tissues than in transfected cell lines and vary among tissues, being highest in the striatum and lowest in the submaxillary gland. Relative expression levels of G-proteins are also known to vary among tissues and cell lines. Thus, it is great to see that the pharmacological profile of the new compounds is conserved despite these variations.
Cell culture and membrane preparation: Chinese hamster ovary (CHO) cells stably transfected with the genes of individual human variants of muscarinic receptors were purchased from Missouri S&T cDNA Resource Center (Rolla, Mo., USA). Fresh primary cell culture of smooth muscle cells (SMC) from rat aorta prepared as previously described was kindly provided by Dr. Lucie Bačáková. […]
Measurements of the production of cAMP and inositol phosphates: Levels of second messengers cAMP and inositol phosphates were determined in radiochemical chromatography assays as described previously. […] Samples were applied to alumina columns (1.5 g of alumina per column), washed with 2 ml ammonium acetate (pH=7.0) and eluted from columns with 4 ml ammonium acetate and measured by liquid scintillation spectrometry. […]

## C[N+](C)(C)CCOC(N)=O [carbachol, reference compound]
  IPX level: increase in IPX level
